Target: Serine/threonine-protein kinase ATR (Homo sapiens, UniProt Q13535)
Assay: Inhibition of ATR (unknown origin) assessed as remaining activity at 1 uM in presence of [gamma33P-ATP] by radiometric assay
Conditions: not given

Sequence of Serine/threonine-protein kinase ATR (Q13535 whole entry, looked up): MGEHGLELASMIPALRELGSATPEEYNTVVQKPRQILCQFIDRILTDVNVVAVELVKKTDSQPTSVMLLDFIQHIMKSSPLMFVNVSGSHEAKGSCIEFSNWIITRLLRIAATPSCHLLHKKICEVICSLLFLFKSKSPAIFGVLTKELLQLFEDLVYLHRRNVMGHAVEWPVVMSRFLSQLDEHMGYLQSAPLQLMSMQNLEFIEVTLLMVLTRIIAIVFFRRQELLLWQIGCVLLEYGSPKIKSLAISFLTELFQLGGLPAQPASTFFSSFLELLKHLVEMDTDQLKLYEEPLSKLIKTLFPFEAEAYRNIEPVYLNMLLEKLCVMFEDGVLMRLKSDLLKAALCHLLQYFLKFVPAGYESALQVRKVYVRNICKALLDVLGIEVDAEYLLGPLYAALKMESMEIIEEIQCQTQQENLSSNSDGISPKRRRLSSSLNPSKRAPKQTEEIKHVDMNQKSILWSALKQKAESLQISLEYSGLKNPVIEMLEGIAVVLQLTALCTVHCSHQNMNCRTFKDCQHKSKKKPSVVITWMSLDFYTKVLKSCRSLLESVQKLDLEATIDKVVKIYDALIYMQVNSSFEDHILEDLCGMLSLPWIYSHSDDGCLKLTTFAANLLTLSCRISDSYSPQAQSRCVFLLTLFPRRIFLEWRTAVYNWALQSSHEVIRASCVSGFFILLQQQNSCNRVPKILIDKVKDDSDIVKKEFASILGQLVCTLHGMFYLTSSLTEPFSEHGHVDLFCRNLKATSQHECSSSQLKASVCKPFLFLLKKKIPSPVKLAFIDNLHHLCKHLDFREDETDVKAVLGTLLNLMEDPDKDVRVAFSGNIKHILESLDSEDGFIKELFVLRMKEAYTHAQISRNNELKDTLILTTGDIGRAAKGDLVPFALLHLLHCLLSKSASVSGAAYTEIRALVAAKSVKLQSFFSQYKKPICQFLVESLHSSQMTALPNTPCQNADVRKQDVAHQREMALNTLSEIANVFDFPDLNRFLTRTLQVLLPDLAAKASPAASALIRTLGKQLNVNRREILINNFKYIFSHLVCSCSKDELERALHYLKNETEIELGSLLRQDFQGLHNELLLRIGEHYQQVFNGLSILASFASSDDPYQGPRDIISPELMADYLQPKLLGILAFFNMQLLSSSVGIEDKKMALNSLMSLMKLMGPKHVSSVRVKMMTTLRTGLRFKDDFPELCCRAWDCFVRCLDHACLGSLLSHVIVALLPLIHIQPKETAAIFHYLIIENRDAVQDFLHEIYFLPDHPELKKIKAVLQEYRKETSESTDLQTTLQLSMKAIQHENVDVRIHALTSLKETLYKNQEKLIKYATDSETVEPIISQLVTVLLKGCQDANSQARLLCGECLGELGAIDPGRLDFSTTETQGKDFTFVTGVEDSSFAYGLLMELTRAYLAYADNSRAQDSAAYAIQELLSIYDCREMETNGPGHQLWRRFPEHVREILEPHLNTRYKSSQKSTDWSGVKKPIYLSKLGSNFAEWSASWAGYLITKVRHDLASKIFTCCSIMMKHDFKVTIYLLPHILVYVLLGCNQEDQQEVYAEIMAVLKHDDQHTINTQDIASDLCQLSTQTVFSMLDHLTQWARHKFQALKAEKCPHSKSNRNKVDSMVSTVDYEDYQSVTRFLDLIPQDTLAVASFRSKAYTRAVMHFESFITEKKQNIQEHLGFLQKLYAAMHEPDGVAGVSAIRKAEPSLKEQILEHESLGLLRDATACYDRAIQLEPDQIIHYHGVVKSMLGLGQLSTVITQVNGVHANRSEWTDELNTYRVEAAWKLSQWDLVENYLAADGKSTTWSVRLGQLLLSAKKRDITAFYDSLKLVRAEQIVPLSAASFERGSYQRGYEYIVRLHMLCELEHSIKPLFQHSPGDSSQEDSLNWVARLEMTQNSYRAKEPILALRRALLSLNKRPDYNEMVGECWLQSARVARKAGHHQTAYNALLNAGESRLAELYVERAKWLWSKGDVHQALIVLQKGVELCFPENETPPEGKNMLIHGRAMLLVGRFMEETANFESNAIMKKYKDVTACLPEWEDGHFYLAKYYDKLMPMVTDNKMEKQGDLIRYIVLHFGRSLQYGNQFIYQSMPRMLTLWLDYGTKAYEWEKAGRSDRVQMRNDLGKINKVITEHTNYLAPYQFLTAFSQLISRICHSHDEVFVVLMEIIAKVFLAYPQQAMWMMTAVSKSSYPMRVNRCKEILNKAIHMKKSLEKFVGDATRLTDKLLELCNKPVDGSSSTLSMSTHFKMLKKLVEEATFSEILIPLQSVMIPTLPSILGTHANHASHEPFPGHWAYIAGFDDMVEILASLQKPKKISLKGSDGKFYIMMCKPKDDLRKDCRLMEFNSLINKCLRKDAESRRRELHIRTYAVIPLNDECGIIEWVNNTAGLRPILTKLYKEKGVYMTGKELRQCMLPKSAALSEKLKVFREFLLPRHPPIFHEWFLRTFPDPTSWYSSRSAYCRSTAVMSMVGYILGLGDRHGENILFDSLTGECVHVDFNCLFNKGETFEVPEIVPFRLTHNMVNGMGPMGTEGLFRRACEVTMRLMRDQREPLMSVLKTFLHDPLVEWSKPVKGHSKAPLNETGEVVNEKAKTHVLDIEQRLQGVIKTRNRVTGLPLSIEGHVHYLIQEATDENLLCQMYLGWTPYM

SMILES	Activity
CC1CCC(NC(=O)N(C)c2cnc3ccc(-c4ccc(OCCCN(C)C)nc4)cc3n2)CC1 (configuration not stated)	94%
CC(C)NC(=O)N(C)c1cnc2ccc(-c3ccc(OCCCN(C)C)nc3)cc2n1	105%
CN(C)CCCOc1ccc(-c2ccc3ncc(N(C)C(=O)Nc4ccc(Cl)cc4)nc3c2)cn1	111%

Other lines, results leading:

Activity	SMILES
98%	CN(C)CCCOc1ccc(-c2ccc3ncc(N(C)C(=O)NC(C)(C)C)nc3c2)cn1
94%	CN(C)CCCOc1ccc(-c2ccc3ncc(NC(=O)NC(C)(C)C)nc3c2)cn1

Target: T1, Serine-protein kinase ATM (Homo sapiens, UniProt Q13315)
Assay: Inhibition of ATM (unknown origin) assessed as remaining activity at 1 uM preincubated with compound for 30 mins followed by substrate addition and measured after 2 hrs by HTRF method relative to control
Conditions: time 2.5 hrs

Activity	SMILES
-4%	Cc1nc(OCCCN2CCCCC2)ccc1-c1ccc2ncc(N(C)C(=O)NC(C)C)nc2c1
-2%	CN(C)CCCOc1ccc(-c2ccc3ncc(NC(=O)NC(C)(C)C)nc3c2)cn1

SMILES	Activity
CCN(CC)CCCOc1ccc(-c2ccc3ncc(N(C)C(=O)NC(C)C)nc3c2)cn1	-3%

Test system: not listed separately
Assay: Metabolic stability in human liver microsomes assessed as clearance at 1 uM in presence of NADPH-regenerating system by LC-MS/MS analysis
Assay type: ADME, Microsome
Conditions: not given

SMILES	CLH
Cc1nc(OCCCN2CCCCC2)ccc1-c1ccc2ncc(N(C)C(=O)NC(C)C)nc2c1	3 mL/min/g
CCN(CC)CCCOc1ccc(-c2ccc3ncc(N(C)C(=O)NC(C)C)nc3c2)cn1	14 mL/min/g
CC1CCC(NC(=O)N(C)c2cnc3ccc(-c4ccc(OCCCN(C)C)nc4)cc3n2)CC1 (configuration not stated)	93 mL/min/g
CC(C)NC(=O)N(C)c1cnc2ccc(-c3ccc(OCCCN(C)C)nc3)cc2n1	40 mL/min/g

The next lines start with the values.

CLH	SMILES
100 mL/min/g	CN(C)CCCOc1ccc(-c2ccc3ncc(N(C)C(=O)NC(C)(C)C)nc3c2)cn1
185 mL/min/g	CN(C)CCCOc1ccc(-c2ccc3ncc(NC(=O)NC(C)(C)C)nc3c2)cn1

Test system: not listed separately
Assay: Metabolic stability in human liver microsomes assessed as half life at 1 uM in presence of NADPH-regenerating system by LC-MS/MS analysis
Assay type: ADME, Microsome
Conditions: not given

SMILES	half-life at 1 µM
Cc1nc(OCCCN2CCCCC2)ccc1-c1ccc2ncc(N(C)C(=O)NC(C)C)nc2c1	462 min
CCN(CC)CCCOc1ccc(-c2ccc3ncc(N(C)C(=O)NC(C)C)nc3c2)cn1	99 min
CC1CCC(NC(=O)N(C)c2cnc3ccc(-c4ccc(OCCCN(C)C)nc4)cc3n2)CC1 (configuration not stated)	19 min
CC(C)NC(=O)N(C)c1cnc2ccc(-c3ccc(OCCCN(C)C)nc3)cc2n1	35 min

The remaining lines, values ahead:

half-life at 1 µM	SMILES
14 min	CN(C)CCCOc1ccc(-c2ccc3ncc(N(C)C(=O)NC(C)(C)C)nc3c2)cn1
8 min	CN(C)CCCOc1ccc(-c2ccc3ncc(NC(=O)NC(C)(C)C)nc3c2)cn1

Target: T1, Serine-protein kinase ATM
Assay: Inhibition of ATM (unknown origin) assessed as remaining activity at 0.01 uM preincubated with compound for 30 mins followed by substrate addition and measured after 2 hrs by HTRF method relative to control
Conditions: time 2.5 hrs

Activity	SMILES
16%	Cc1nc(OCCCN2CCCCC2)ccc1-c1ccc2ncc(N(C)C(=O)NC(C)C)nc2c1
22%	CN(C)CCCOc1ccc(-c2ccc3ncc(N(C)C(=O)NC(C)(C)C)nc3c2)cn1
8%	CC1CCC(NC(=O)N(C)c2cnc3ccc(-c4ccc(OCCCN(C)C)nc4)cc3n2)CC1 (configuration not stated)
37%	CN(C)CCCOc1ccc(-c2ccc3ncc(N(C)C(=O)Nc4ccc(Cl)cc4)nc3c2)cn1

SMILES	Activity
CCN(CC)CCCOc1ccc(-c2ccc3ncc(N(C)C(=O)NC(C)C)nc3c2)cn1	19%
CC(C)NC(=O)N(C)c1cnc2ccc(-c3ccc(OCCCN(C)C)nc3)cc2n1	14%

Target: T1, Serine-protein kinase ATM
Assay: Inhibition of ATM (unknown origin) preincubated with compound for 30 mins followed by substrate addition and measured after 2 hrs by HTRF method
Conditions: not given

IC50	SMILES
9 nM	Cc1nc(OCCCN2CCCCC2)ccc1-c1ccc2ncc(N(C)C(=O)NC(C)C)nc2c1
13 nM	CN(C)CCCOc1ccc(-c2ccc3ncc(N(C)C(=O)NC(C)(C)C)nc3c2)cn1
2 nM	CC1CCC(NC(=O)N(C)c2cnc3ccc(-c4ccc(OCCCN(C)C)nc4)cc3n2)CC1 (configuration not stated)

SMILES	IC50
CCN(CC)CCCOc1ccc(-c2ccc3ncc(N(C)C(=O)NC(C)C)nc3c2)cn1	1 nM
CC(C)NC(=O)N(C)c1cnc2ccc(-c3ccc(OCCCN(C)C)nc3)cc2n1	2 nM

Test system: HCT-116
Assay: Inhibition of colony formation in human HCT-116 cells at 0.01 uM preincubated for 1 hr followed by exposure to 2 Gy gamma irradiation and measured after 1 week by crystal violet staining based […] assay relative to control
Assay type: functional
Conditions: HCT-116, light or radiation study, time 169 hrs

SMILES	inhibition at 0.01 µM
Cc1nc(OCCCN2CCCCC2)ccc1-c1ccc2ncc(N(C)C(=O)NC(C)C)nc2c1	48.2%
CCN(CC)CCCOc1ccc(-c2ccc3ncc(N(C)C(=O)NC(C)C)nc3c2)cn1	72.8%
CN(C)CCCOc1ccc(-c2ccc3ncc(N(C)C(=O)NC(C)(C)C)nc3c2)cn1	44.7%
CC1CCC(NC(=O)N(C)c2cnc3ccc(-c4ccc(OCCCN(C)C)nc4)cc3n2)CC1 (configuration not stated)	76.2%
CC(C)NC(=O)N(C)c1cnc2ccc(-c3ccc(OCCCN(C)C)nc3)cc2n1	58.4%
CN(C)CCCOc1ccc(-c2ccc3ncc(N(C)C(=O)Nc4ccc(Cl)cc4)nc3c2)cn1	11.7%

Test system: HCT-116
Assay: Inhibition of colony formation in human HCT-116 cells preincubated for 1 hr followed by exposure to 2 Gy gamma irradiation and measured after 1 week by crystal violet staining based […] assay
Assay type: functional, cell-based
Conditions: HCT-116, light or radiation study

SMILES	IC50
Cc1nc(OCCCN2CCCCC2)ccc1-c1ccc2ncc(N(C)C(=O)NC(C)C)nc2c1	21.9 nM
CCN(CC)CCCOc1ccc(-c2ccc3ncc(N(C)C(=O)NC(C)C)nc3c2)cn1	6.97 nM
CC(C)NC(=O)N(C)c1cnc2ccc(-c3ccc(OCCCN(C)C)nc3)cc2n1	8.94 nM

Test system: HCT-116
Assay: Antiproliferative activity against human HCT-116 cells assessed as cell survival at 1 uM incubated for 6 days by MTT assay relative to control
Assay type: functional
Conditions: HCT-116, 144 h, time 6 day, read-out: Survival

SMILES	viability at 1 µM
CCN(CC)CCCOc1ccc(-c2ccc3ncc(N(C)C(=O)NC(C)C)nc3c2)cn1	> 83%
CC(C)NC(=O)N(C)c1cnc2ccc(-c3ccc(OCCCN(C)C)nc3)cc2n1	> 83%

— ChEMBL document CHEMBL5346961, “Discovery and Evaluation of 3-Quinoxalin Urea Derivatives as Potent, Selective, and Orally Available ATM Inhibitors Combined with Chemotherapy for the Treatment of Cancer via Goal-Oriented Molecule Generation and Virtual Screening” (J Med Chem, 2023)
